In US9566240B2, “Compositions for multiphase, staggered, or sustained release of an active substance” (CLABBER GIRL CORPORATION, priority 2014, dated 2017):

Assays:
[1] = tested on: composited rumen contents; test: In vitro ruminal incubation: volatile fatty acid production
Description: Each of the products was tested using in vitro ruminal incubation to determine the product's influence on ruminal pH, volatile fatty acid production in relation to changes in ruminal pH, and the associative effects of ruminal pH and volatile fatty acid on dry matter disappearance, starch disappearance, and neutral detergent fiber disappearance. Incubation solution containing water, composited rumen contents, and Van Soest buffer was placed in 1 L-incubation vessels (1 L oval deli cup with lid and Bunsen valve). Simulated feeding bags were obtained by placing 3 g of ground (Wiley Mill, 8 mm screen) total meal rations (10% alfalfa hay, 35% corn silage, 50% corn grain, and 5% vitamin/minerals) into 5 cm×10 cm bags with a pore size of 40 microns. Product 1 was added to each of eight replicate feeding bags in an amount at 0.2273 g/L. Product 2 was added to another set of eight replicate bags in an amount of 0.3704 g/L. Product 3 was added to another set of eight replicate bags in an amount of 0.5710 g/L. Control was added to another set of eight replicate bags in an amount of 0.1 g/L. A fifth set of eight replicate bags contained just the 3g of ground total meal rations to serve as a “Blank” control. To simulate twice-a-day-feeding, four replicates from each set of replicates were added to the incubation vessels at zero hours (0 H), and four more were added at twelve hours (12 H). The incubation vessels were placed into a temperature controlled, air jacketed, anaerobic incubator (39° C., and 20% carbon dioxide) for the duration of their assigned incubation time. Ruminal pH was measured during each incubation time. At zero hours and twelve hours, pH was also recorded before and after the simulated feeding. […] Dry matter disappearance, starch disappearance, and neutral detergent fiber disappearance were measured by removing replicate bags at the same hours the volatile fatty acid aliquots were taken, drying them in a forced-air oven at 60° C. to a constant weight, and storing them for future analysis. […] The first feeding was monitored for 12 hours (2, 6, and 12). Then the second feeding was monitored at 14 and 18 hours which corresponded to the 2 and 6 hours post-feeding.

[2] = tested on: composited rumen contents; test: In vitro ruminal incubation: ruminal pH; details: over a 24 hour feeding cycle
Description: Each of the products was tested using in vitro ruminal incubation to determine the product's influence on ruminal pH, volatile fatty acid production in relation to changes in ruminal pH, and the associative effects of ruminal pH and volatile fatty acid on dry matter disappearance, starch disappearance, and neutral detergent fiber disappearance. Incubation solution containing water, composited rumen contents, and Van Soest buffer was placed in 1 L-incubation vessels (1 L oval deli cup with lid and Bunsen valve). Simulated feeding bags were obtained by placing 3 g of ground (Wiley Mill, 8 mm screen) total meal rations (10% alfalfa hay, 35% corn silage, 50% corn grain, and 5% vitamin/minerals) into 5 cm×10 cm bags with a pore size of 40 microns. […] Ruminal pH was measured during each incubation time. At zero hours and twelve hours, pH was also recorded before and after the simulated feeding. […] Dry matter disappearance, starch disappearance, and neutral detergent fiber disappearance were measured by removing replicate bags at the same hours the volatile fatty acid aliquots were taken, drying them in a forced-air oven at 60° C. to a constant weight, and storing them for future analysis.

[3] = tested on: composited rumen contents; test: In vitro ruminal incubation: dry matter, starch and neutral detergent fiber disappearance
Description: Each of the products was tested using in vitro ruminal incubation to determine the product's influence on ruminal pH, volatile fatty acid production in relation to changes in ruminal pH, and the associative effects of ruminal pH and volatile fatty acid on dry matter disappearance, starch disappearance, and neutral detergent fiber disappearance.
Incubation solution containing water, composited rumen contents, and Van Soest buffer was placed in 1 L-incubation vessels (1 L oval deli cup with lid and Bunsen valve). Simulated feeding bags were obtained by placing 3 g of ground (Wiley Mill, 8 mm screen) total meal rations (10% alfalfa hay, 35% corn silage, 50% corn grain, and 5% vitamin/minerals) into 5 cm×10 cm bags with a pore size of 40 microns. Product 1 was added to each of eight replicate feeding bags in an amount at 0.2273 g/L. Product 2 was added to another set of eight replicate bags in an amount of 0.3704 g/L. Product 3 was added to another set of eight replicate bags in an amount of 0.5710 g/L. Control was added to another set of eight replicate bags in an amount of 0.1 g/L. A fifth set of eight replicate bags contained just the 3g of ground total meal rations to serve as a “Blank” control.
To simulate twice-a-day-feeding, four replicates from each set of replicates were added to the incubation vessels at zero hours (0 H), and four more were added at twelve hours (12 H). The incubation vessels were placed into a temperature controlled, air jacketed, anaerobic incubator (39° C., and 20% carbon dioxide) for the duration of their assigned incubation time.
Ruminal pH was measured during each incubation time. At zero hours and twelve hours, pH was also recorded before and after the simulated feeding. Volatile fatty acid production was measured by taking 50 ml aliquots of the supernatant of each incubation vessel at 0, 2, 6, 12, 14, 18, and 24 hours, acidifying the aliquot with 5 ml of 50% HCl, and freezing it for future analysis. Dry matter disappearance, starch disappearance, and neutral detergent fiber disappearance were measured by removing replicate bags at the same hours the volatile fatty acid aliquots were taken, drying them in a forced-air oven at 60° C. to a constant weight, and storing them for future analysis.
Dry matter, starch, and neutral detergent fiber concentrations were measured at 2, 4, 6, 10, 12, 16, 18, and 22 hours of incubation. The measurements for starch disappearance and neutral detergent fiber disappearance were made at 2, 6, 16, and 22 hours of incubation. The early times were selected to monitor the faster degradation of starch, and the later times to monitor the slower degradation of neutral detergent fiber. […]

[4] = in vitro incubation, at the two peaks of 2 and 14 hours
[5] = in vitro incubation, overall values at 18 hours

With `O=C([O-])O.[Na+]` [Control, sodium bicarbonate] the “total volatile fatty acids concentration” value ([1]; at 18 H, after the second feeding (12 H), FIG. 4) was “higher concentration at 18 H compared to that of Product 2”, the “ratio of even- to odd-numbered carbon chain VFAs, overall assessment” value ([1]; from Table 3, high total VFA plus high propionic acid without decrease in acetic acid) was “superior to the other treatments” and the “A:P Peaks (acetic acid to propionic acid ratio at peak concentrations)” value [1, 4] was 8.30. The “AB:P Peaks (sum of acetic and butyric acid to propionic acid ratio at peak concentrations)” value [1, 4] was 9.39, the “A:P (acetic acid to propionic acid ratio)” value [1, 5] was 11.61 and the “AB:P (sum of acetic acid and butyric acid to propionic acid ratio)” value [1, 5] was 12.50. The “buffering of rumen pH” value [2] was “only a “flash” neutralization that was soon dissipated”, the dry matter disappearance ([3]; first 11 hours of the feeding cycle) was “little dry matter disappearance” and the dry matter disappearance ([3]; in vitro incubations, FIG. 8) was “best results”. For the same compound, the starch disappearance ([3]; in vitro incubations, FIG. 9) was “best results” and the “neutral detergent fiber disappearance” value ([3]; in vitro incubations, FIG. 10) was “higher neutral detergent fiber disappearance over Products 1, 2, and 3, and Blank”.
